Experimental data from patent publication US20150065470A1, “Steroid Sulfatase Inhibitor Regimen for the Treatment of Endometriosis” (priority 2012, published 2015).
Values joined by “and” are separate entries in the source; they are usually repeats but may differ in a detail not shown here. Identical values can stand only once.

Legend:
E2 (serum estradiol) = experiment: Serum hormonal profile incl. estradiol concentrations, Example 1; type: in vivo, human
Procedure: Pharmacodynamic properties were investigated by assessment of the STS activity in PBMCs and by measurement of the serum hormonal profile comprising the ratio of E1-S to E1 and DHEA-S to DHEA. […] Hormone profiles were analysed using commercially available ELISA or RIA kits.

[1] = Safety, tolerability and post-treatment menstruation cycles, Example 2
Source text: Menstruation cycle length was not influenced by the treatment. […] Sizes of right and left ovary differed slightly for each subject, but no clinically relevant changes were identified by the gynaecologists.

[2] = molecular target: T1, Steroid Sulfatase in endometrium (Homo sapiens, UniProt P08842); experiment: STS activity in endometrium, Example 2 (LC-MS/MS); type: in vivo
T1 construct: from tissue; host or cells: endometrium (biopsies) of dosed women
T1 sequence (P08842 22-583): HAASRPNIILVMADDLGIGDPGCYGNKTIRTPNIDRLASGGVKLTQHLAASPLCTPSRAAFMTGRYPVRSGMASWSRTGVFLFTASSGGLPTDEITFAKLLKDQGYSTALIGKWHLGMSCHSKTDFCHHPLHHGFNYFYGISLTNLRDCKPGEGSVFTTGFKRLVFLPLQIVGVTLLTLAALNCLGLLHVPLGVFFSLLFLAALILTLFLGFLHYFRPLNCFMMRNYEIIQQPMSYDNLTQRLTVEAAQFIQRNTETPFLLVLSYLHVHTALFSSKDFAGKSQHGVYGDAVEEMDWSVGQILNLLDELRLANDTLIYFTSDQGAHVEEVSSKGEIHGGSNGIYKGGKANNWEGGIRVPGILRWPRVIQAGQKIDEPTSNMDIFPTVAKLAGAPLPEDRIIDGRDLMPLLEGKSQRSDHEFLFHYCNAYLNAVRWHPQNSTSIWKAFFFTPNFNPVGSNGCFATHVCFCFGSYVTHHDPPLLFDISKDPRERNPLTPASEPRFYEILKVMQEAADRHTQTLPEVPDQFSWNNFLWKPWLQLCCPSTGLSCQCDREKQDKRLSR
Procedure: STS activity was determined by spiking specimens with labelled E1-S and by measuring its conversion to E1 per gram protein under standardized incubation conditions using LC-MS/MS. Protein concentration was evaluated with a validated colorimetric assay (Bradford method).

[3] = molecular target: T2, STS activity in Peripheral Blood Mononuclear Cells (PBMCs) (Homo sapiens, UniProt P08842); experiment: STS inhibition in PBMCs, loading and maintenance phase, Example 4; type: in vivo; conditions: concomitant NETA 5 mg daily, patients
T2 construct: Pharmacodynamic properties were investigated by assessment of the STS activity in PBMCs; endogenous in cells; host or cells: peripheral blood mononuclear cells (PBMCs) of dosed women
T2 sequence (P08842 22-583): T1 sequence (P08842 22-583)
Source text: The study is multicentre, randomised, two-arm, parallel group, double-blind, placebo controlled where eligible subjects were randomised on study day 1 in a 1:1 ratio into treatment group A or B between day 1 and day 4 of the menstrual bleeding.
The baseline is established in terms of endometriosis profile regarding pelvic pain, dysmenorrhea, dyspaneuria and bleeding pattern and those parameters are followed during the treatment. During the loading phase the subjects are monitored on day 7, day 21 and on week 4 and during the maintenance phase monthly on week 8, week 12 and week 16.

STS = molecular target: T3, STS (Homo sapiens, UniProt P08842); conditions: cited from earlier work
T3 sequence (P08842 22-583): T1 sequence (P08842 22-583)

[4] = multiple dose 0.25 mg weekly x4, Cycle 1
[5] = multiple dose 0.25 mg weekly x4, Cycle 2
[6] = multiple dose 0.25 mg weekly x4, Cycle 3
[7] = multiple dose 1 mg weekly x4, Cycle 1
[8] = multiple dose 1 mg weekly x4, Cycle 2
[9] = multiple dose 1 mg weekly x4, Cycle 3
[10] = multiple dose 4 mg weekly x4, Cycle 1
[11] = multiple dose 4 mg weekly x4, Cycle 2
[12] = multiple dose 4 mg weekly x4, Cycle 3

Compound: C[C@]12CC[C@@H]3c4ccc(OS(N)(=O)=O)cc4CC[C@H]3[C@@H]1CC[C@@H]2O [E2MATE, Estradiol-3-o-sulfamate]
- Avg estradiol concentration, Mean (E2 (serum estradiol); [4]): 135.7 ng/L
- Max estradiol concentration, Mean (E2 (serum estradiol); [4]): 305.3 ng/L
- Avg estradiol concentration, Mean (E2 (serum estradiol); [5]): 116.0 ng/L
- Max estradiol concentration, Mean (E2 (serum estradiol); [5]): 260.5 ng/L
- Avg estradiol concentration, Mean (E2 (serum estradiol); [6]): 107.1 ng/L
- Max estradiol concentration, Mean (E2 (serum estradiol); [6]): 185.4 ng/L
- Avg estradiol concentration, Mean (E2 (serum estradiol); [7]): 126.0 ng/L
- Max estradiol concentration, Mean (E2 (serum estradiol); [7]): 278.6 ng/L
- Avg estradiol concentration, Mean (E2 (serum estradiol); [8]): 109.0 ng/L
- Max estradiol concentration, Mean (E2 (serum estradiol); [8]): 193.4 ng/L
- Avg estradiol concentration, Mean (E2 (serum estradiol); [9]): 110.0 ng/L
- Max estradiol concentration, Mean (E2 (serum estradiol); [9]): 221.6 ng/L
- Avg estradiol concentration, Mean (E2 (serum estradiol); [10]): 134.8 ng/L
- Max estradiol concentration, Mean (E2 (serum estradiol); [10]): 317.8 ng/L
- Avg estradiol concentration, Mean (E2 (serum estradiol); [11]): 100.9 ng/L
- Max estradiol concentration, Mean (E2 (serum estradiol); [11]): 207.7 ng/L
- Avg estradiol concentration, Mean (E2 (serum estradiol); [12]): 94.9 ng/L
- Max estradiol concentration, Mean (E2 (serum estradiol); [12]): 180.9 ng/L
- differences in mean concentration-time profiles of E2, P4, LH, FSH, T and D4A compared to placebo (E2 (serum estradiol); multiple dose administration): No clinically relevant dose-related differences
- Avg (weighted average) estradiol concentration, Mean (E2 (serum estradiol); single dose 0.25 mg E2MATE): 141.2 ng/L
- Max estradiol concentration, Mean (E2 (serum estradiol); single dose 0.25 mg E2MATE): 335.1 ng/L
- Avg (weighted average) estradiol concentration, Mean (E2 (serum estradiol); single dose 1 mg E2MATE): 131.0 ng/L
- Max estradiol concentration, Mean (E2 (serum estradiol); single dose 1 mg E2MATE): 318.1 ng/L
- Avg (weighted average) estradiol concentration, Mean (E2 (serum estradiol); single dose 4 mg E2MATE): 113.8 ng/L
- Max estradiol concentration, Mean (E2 (serum estradiol); single dose 4 mg E2MATE): 275.3 ng/L
- Avg (weighted average) estradiol concentration, Mean (E2 (serum estradiol); single dose 8 mg E2MATE): 109.3 ng/L
- Max estradiol concentration, Mean (E2 (serum estradiol); single dose 8 mg E2MATE): 221.1 ng/L
- effects on mean concentration-time profiles of E2, P4, LH, FSH, T and D4A compared to placebo (E2 (serum estradiol); single dose administration): No clinically relevant effects
- ovarian size ([1]; in vivo): no apparent effect
- tolerability ([1]; multiple doses for 4 weeks, healthy pre-menopausal female subjects): well tolerated
- AVG [%] average inhibition of Steroid Sulfatase in endometrium (average effect over time (AUC)) ([2]; E2MATE 4 mg weekly and/or NETA 10 mg daily for 4 weeks): 66.6 (2.7) % and 66.60%
- STS inhibition [%] in endometrium ([2]; end of treatment, between Day 25 and Day 29): 91% and 90.66%
- Emax ([2]; read-out: Emax [%] maximal inhibition of Steroid Sulfatase in endometrium): 91%
- STS inhibition [%] in endometrium, After treatment ([2]; third biopsy day, 1 month after the end of the treatment (approximately 50 days after dosing)): 88% and 87.50%
- STS inhibition in PBMCs after the loading phase ([3]; Day 28, 16 mg over 4 weeks): almost complete
- STS inhibition in PBMCs at maintenance dose ([3]; Day 56, 2 mg/week): almost entire
- STS inhibition (STS): active STS inhibitors
